Experiment [1] deals with BMP-2-inducible protein kinase (Homo sapiens) (UniProt Q9NSY1). The experiment in a line: Selectivity interaction (KinomeScan (DiscoverX)) EUB0000698a BMP2K. The following applies: at 10 µM.
Experiment [2] addresses Cyclin-dependent kinase 7 (Homo sapiens) (UniProt P50613). The experiment in a line: Selectivity interaction (KinomeScan (DiscoverX)) EUB0000702a CDK7. The following applies: at 1 µM.
For experiment [3], the system named is Hepatocyte growth factor receptor (Homo sapiens), P08581 [Y1235D]. Put plainly: (§1) Selectivity interaction (KinomeScan (DiscoverX)) EUB0000702a MET. The following applies: at 1 µM.
For experiment [4], the system named is Hepatocyte growth factor receptor (Homo sapiens), P08581 [M1250T]. The experiment is described as §1. The following applies: at 1 µM.
Experiment [5] has as its target Protein kinase C alpha type (Homo sapiens) (UniProt P17252). Put plainly: Selectivity interaction (Kinase panel (University of Dundee)) EUB0000169b PRKCA. The following applies: at 10 µM.
In experiment [6] the target is T1, Alpha-1A adrenergic receptor (Homo sapiens) (UniProt P35348).
T1 sequence (whole entry): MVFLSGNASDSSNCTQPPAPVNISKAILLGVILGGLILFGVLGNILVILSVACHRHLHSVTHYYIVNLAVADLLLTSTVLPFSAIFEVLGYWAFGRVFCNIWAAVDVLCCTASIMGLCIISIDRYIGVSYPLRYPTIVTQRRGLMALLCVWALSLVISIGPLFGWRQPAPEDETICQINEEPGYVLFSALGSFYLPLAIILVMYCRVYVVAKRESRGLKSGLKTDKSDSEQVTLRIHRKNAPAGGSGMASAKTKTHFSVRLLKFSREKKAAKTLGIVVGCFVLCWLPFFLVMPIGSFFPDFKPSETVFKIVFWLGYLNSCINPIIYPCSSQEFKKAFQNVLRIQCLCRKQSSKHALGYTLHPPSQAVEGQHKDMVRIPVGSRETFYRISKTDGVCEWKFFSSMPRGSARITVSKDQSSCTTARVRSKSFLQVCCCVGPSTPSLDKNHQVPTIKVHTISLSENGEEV
The experiment in a line: Selectivity interaction (SafetyScreen44™ (Eurofins, panel of GPCRS, ion channels, transporters) ) EUB0000169b ADRA1A. The following applies: at 10 µM.

Experiment [7] has as its target T2, Mitogen-activated protein kinase kinase kinase 19 (Homo sapiens) (UniProt Q56UN5).
T2 sequence (whole entry): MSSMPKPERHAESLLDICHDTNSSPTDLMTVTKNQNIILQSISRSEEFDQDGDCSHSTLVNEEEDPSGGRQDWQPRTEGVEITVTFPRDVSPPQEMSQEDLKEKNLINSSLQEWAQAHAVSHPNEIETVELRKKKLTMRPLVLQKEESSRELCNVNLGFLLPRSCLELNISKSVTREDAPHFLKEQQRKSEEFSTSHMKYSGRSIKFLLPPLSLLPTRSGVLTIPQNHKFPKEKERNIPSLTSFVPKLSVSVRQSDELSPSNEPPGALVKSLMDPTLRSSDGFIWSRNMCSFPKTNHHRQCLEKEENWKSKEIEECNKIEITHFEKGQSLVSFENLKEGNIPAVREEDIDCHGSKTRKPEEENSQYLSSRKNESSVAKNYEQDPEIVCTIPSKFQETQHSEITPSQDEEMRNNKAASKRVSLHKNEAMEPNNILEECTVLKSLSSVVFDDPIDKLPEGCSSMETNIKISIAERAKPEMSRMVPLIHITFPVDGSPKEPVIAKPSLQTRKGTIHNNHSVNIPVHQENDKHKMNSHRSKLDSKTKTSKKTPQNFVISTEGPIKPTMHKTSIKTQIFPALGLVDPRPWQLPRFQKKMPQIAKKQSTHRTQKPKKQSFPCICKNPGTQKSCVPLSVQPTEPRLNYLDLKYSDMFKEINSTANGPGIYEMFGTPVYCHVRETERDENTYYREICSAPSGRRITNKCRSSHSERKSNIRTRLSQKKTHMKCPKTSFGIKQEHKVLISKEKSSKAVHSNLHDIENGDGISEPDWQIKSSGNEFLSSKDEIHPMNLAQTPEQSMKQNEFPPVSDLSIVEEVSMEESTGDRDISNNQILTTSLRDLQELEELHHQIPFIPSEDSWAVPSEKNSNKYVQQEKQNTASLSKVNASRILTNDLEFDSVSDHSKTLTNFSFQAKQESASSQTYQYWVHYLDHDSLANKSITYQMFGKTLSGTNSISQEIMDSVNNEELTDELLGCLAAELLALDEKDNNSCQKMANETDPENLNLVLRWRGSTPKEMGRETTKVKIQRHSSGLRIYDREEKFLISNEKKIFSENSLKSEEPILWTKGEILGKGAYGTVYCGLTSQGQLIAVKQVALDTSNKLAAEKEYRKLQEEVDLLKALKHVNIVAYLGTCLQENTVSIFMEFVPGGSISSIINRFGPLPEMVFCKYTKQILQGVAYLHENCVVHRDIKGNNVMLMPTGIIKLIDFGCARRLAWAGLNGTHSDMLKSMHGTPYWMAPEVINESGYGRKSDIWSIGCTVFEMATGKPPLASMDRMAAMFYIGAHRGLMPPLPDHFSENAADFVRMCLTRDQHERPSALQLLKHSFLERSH
The experiment in a line: Selectivity interaction (KinomeScan (DiscoverX)) EUB0000305b MAP3K19. The following applies: CellTiter-Glo assay (Promega, proliferation in ACHN cells): IC50 = […] nM, https://www.sgc-ffm.uni-frankfurt.de/#!specificprobeove, at 100 nM.

For experiment [8], the target named is T3, Dual specificity mitogen-activated protein kinase kinase 5 (Homo sapiens, UniProt Q13163).
T3 sequence (Q13163 whole entry): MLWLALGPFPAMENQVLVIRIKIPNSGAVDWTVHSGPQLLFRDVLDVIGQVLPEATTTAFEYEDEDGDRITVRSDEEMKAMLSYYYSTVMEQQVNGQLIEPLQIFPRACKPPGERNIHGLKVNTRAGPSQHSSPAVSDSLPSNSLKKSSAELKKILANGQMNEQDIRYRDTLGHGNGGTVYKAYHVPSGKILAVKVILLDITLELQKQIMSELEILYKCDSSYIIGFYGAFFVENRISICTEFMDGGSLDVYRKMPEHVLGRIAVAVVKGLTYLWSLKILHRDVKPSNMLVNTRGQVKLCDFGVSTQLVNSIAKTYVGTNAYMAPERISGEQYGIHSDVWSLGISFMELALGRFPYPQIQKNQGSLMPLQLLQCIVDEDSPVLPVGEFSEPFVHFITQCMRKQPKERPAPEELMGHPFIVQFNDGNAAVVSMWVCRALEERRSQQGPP
The experiment in a line: Selectivity interaction (Enzymatic assay) EUB0000305b MAP2K5.

Experiment [9] has as its target Serine/threonine-protein kinase DCLK1 (Homo sapiens) (UniProt O15075). The experiment in a line: Selectivity interaction (KinomeScan (DiscoverX)) EUB0000178b DCLK1. The following applies: at 1 µM.
Experiment [10] addresses Tyrosine-protein kinase ABL1 (Homo sapiens, UniProt P00519, T315I). Put plainly: Selectivity interaction (KinomeScan (DiscoverX, competition-binding assay)) EUB0000178b ABL1.

In general, IC50 refers to the midpoint of a concentration-inhibition curve. High values mean lower potency, low ones higher potency. By Kd is commonly meant a measure of binding affinity in units of concentration. The low end stands for higher affinity, the high end for lower affinity.

Sequence of Hepatocyte growth factor receptor (Homo sapiens), P08581 [Y1235D] (P08581 whole entry Y1235D): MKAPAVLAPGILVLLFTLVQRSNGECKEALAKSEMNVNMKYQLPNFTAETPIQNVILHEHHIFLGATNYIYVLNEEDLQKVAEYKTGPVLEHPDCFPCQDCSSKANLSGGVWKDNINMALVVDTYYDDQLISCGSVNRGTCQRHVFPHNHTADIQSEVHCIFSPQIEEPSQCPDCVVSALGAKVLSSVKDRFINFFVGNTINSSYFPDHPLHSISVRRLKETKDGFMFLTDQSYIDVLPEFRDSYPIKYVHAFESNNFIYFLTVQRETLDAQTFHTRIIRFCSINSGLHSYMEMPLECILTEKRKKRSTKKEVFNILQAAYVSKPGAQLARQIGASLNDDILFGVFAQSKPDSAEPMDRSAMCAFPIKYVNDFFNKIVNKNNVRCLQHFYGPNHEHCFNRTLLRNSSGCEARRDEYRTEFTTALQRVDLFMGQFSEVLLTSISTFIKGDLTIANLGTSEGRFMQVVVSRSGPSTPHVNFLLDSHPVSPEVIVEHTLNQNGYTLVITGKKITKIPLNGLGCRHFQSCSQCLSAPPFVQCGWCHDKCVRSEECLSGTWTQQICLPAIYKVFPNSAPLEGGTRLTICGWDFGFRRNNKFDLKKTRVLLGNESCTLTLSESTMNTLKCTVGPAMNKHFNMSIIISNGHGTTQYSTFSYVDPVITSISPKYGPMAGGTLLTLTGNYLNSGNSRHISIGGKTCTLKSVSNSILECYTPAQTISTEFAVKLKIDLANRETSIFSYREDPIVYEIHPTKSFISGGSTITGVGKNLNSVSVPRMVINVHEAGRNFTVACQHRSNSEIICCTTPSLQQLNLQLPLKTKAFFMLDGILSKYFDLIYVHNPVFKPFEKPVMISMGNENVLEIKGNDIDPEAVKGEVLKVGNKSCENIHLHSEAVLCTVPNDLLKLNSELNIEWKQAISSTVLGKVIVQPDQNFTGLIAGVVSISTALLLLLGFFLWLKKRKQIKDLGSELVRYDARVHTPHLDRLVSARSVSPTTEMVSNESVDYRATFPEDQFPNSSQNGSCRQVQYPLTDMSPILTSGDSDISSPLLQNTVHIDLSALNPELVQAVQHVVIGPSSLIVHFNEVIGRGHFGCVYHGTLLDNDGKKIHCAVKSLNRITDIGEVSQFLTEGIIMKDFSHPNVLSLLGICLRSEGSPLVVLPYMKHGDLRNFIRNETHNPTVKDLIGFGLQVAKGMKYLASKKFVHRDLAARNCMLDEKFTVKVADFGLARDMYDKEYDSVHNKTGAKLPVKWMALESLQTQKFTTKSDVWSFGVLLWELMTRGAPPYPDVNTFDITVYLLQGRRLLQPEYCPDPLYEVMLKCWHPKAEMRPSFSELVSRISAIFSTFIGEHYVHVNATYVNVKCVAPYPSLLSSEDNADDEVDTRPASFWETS
Sequence of Cyclin-dependent kinase 7 (Homo sapiens) (P50613 whole entry): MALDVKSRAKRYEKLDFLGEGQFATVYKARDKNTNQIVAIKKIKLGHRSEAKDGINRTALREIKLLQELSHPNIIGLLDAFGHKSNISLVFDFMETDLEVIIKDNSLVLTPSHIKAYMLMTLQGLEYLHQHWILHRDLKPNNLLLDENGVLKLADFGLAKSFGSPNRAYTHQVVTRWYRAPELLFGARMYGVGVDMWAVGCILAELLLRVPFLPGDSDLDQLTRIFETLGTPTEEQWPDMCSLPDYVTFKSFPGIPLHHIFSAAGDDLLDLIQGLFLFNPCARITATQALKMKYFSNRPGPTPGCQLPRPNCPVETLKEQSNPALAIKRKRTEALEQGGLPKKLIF
Sequence of BMP-2-inducible protein kinase (Homo sapiens) (Q9NSY1 whole entry, looked up): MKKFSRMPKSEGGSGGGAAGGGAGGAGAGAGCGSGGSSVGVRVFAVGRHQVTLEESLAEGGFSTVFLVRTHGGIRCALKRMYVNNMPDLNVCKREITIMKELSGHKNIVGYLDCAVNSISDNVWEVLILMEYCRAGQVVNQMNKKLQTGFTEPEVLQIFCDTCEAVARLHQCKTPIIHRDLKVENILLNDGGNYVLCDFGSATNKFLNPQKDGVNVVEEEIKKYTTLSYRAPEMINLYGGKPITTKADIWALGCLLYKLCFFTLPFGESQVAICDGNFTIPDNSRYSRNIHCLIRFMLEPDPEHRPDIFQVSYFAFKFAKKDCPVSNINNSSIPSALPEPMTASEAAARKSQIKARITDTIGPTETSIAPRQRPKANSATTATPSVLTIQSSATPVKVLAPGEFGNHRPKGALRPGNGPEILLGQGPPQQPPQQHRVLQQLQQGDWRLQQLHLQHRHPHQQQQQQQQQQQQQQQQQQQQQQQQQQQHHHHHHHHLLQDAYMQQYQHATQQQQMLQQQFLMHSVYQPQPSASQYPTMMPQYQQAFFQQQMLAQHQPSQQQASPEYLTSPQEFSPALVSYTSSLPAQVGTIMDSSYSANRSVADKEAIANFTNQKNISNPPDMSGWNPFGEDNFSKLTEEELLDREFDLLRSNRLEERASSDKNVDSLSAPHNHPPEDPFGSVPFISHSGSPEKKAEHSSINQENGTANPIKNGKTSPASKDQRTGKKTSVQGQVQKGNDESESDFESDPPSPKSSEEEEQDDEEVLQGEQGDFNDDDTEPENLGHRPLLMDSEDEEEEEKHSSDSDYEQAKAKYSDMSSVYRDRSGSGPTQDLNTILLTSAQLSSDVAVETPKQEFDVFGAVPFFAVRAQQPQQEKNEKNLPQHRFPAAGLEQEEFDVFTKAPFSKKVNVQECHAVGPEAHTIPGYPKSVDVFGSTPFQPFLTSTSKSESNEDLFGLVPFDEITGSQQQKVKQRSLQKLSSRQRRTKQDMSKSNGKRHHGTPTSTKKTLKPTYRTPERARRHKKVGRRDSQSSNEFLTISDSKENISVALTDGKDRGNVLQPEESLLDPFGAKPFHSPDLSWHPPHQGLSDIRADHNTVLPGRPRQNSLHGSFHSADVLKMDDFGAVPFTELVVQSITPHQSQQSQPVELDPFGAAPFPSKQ
Sequence of Serine/threonine-protein kinase DCLK1 (Homo sapiens) (O15075 whole entry): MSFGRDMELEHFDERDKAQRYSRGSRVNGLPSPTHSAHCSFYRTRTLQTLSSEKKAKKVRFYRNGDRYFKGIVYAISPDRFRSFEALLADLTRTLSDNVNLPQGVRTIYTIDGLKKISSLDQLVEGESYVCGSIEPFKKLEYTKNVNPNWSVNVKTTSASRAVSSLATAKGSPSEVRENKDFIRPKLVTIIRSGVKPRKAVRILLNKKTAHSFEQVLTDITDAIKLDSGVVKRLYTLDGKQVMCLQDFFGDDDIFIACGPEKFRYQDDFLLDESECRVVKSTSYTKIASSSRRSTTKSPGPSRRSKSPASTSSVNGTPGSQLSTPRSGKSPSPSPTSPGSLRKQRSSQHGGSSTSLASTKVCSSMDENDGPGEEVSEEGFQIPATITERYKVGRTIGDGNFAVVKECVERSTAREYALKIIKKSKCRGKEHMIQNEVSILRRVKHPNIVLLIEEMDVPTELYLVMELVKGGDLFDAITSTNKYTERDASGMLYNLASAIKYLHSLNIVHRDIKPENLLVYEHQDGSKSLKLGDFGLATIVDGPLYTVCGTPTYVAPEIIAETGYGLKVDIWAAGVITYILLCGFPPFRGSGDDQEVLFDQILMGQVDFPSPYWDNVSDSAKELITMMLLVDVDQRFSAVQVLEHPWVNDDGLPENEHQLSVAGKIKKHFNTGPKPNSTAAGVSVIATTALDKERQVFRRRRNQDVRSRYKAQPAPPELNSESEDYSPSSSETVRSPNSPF

In experiment [1], `COc1cc2ncn(-c3cc(OCc4ccccc4C(F)(F)F)c(C(N)=O)s3)c2cc1OC` [GW843682X] came in with a % of control of 1%.

`CN(c1ccnc(CNc2nc(Nc3ccc4c(c3)CC(=O)N4)ncc2C(F)(F)F)n1)S(C)(=O)=O` [PF-00911705]: the % of control in experiment [2] is 3.5%; in experiment [3], 10%; in experiment [4], 6.8%.

On to `CC[C@@H]1C(=O)N(C)c2cnc(Nc3ccc(C(=O)NC4CCN(C)CC4)cc3OC)nc2N1C1CCCC1`, for which the % of control in experiment [5] turned out to be 103%; in [6], 13%.

`C[C@H](c1ccnc(Nc2nc3ccc(-c4cc(N(C)C)ncn4)cc3[nH]2)c1)N1CCN(C(=O)CC(F)(F)F)CC1` [BAY-985] yielded a % of control in [7] of 10%. Further, the IC50 in experiment [8] stood at 847 nM.

Compound `CN1C(=O)c2sccc2N(C)c2nc(Nc3ccc(S(N)(=O)=O)cc3)ncc21` had a % of control in experiment [9] of 8.3%. The same compound gave a dissociation constant (Kd) in experiment [10] of 14 nM.
